The test concerns the target BTK (Homo sapiens (Human), UniProt Q06187). In words: In vitro BTK kinase assay: BTK-POLYGAT-LS ASSAY. It is filed as biochemical. The note with it: read-out: IC50 (10 uM ATP), polyGAT 100 nM, BTK 0.25 nM.

Broadly, the IC50 is the concentration at which inhibition is half-maximal.

BTK, sequence (Q06187 whole entry): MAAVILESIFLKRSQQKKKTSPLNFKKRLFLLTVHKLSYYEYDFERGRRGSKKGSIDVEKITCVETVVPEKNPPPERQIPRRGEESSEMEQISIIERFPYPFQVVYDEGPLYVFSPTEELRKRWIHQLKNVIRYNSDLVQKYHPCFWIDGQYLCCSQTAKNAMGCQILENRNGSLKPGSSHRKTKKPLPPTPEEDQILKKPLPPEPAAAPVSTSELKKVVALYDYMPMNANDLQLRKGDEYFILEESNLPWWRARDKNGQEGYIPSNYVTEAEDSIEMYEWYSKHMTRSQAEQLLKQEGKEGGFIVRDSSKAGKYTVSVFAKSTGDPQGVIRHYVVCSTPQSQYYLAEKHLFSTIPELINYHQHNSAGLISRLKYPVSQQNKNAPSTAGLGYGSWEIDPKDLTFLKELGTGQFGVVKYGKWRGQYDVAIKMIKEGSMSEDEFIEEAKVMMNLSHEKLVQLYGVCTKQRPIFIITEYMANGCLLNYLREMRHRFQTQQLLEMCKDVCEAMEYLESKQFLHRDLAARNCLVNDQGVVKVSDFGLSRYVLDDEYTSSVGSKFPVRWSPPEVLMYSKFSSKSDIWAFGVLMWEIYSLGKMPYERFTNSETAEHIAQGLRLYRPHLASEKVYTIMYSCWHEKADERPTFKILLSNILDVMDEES

In the case of “1-(3-(1-(methylsulfonyl)-4-(7H-pyrrolo[2,3-d]pyrimidin-4-yl)piperazin-2-yl)phenyl)-3-phenylurea [compound 128]”, the IC50 is over 10 µM.

For the origin of these results see US10577374B2, “Bruton's tyrosine kinase inhibitors” (priority 2009, dated 2020).
